Data taken from patent US10194660B2, “Herbicidal compounds” (Syngenta Participations AG, priority 2015, dated 2019).

Legend:
Assay type in all cases: in vivo
[1] = test system: Ipomoea hederacea (IPOHE); assay: Pre-emergence herbicidal glasshouse test; details: evaluated after 13 days, five point scale
Description: (§1) Seeds of a variety of test species are sown in standard soil in pots (Lolium perenne (LOLPE), Solanum nigrum (SOLNI), Amaranthus retoflexus (AMARE), Setaria faberi (SETFA), Echinochloa crus-galli (ECHCG), Ipomoea hederacea (IPOHE)). After cultivation for one day (pre-emergence) or after 8 days cultivation (post-emergence) under controlled conditions in a glasshouse (at 24/16° C., day/night; 14 hours light; 65% humidity), the plants are sprayed with an aqueous spray solution derived from the formulation of the technical active ingredient in acetone/water (50:50) solution containing 0.5% Tween 20 (polyoxyethelyene sorbitan monolaurate, CAS RN 9005-64-5). Compounds are applied at 500 g/h unless otherwise stated. The test plants are then grown in a glasshouse under controlled conditions in a glasshouse (at 24/16° C., day/night; 14 hours light; 65% humidity) and watered twice daily. After 13 days for pre and post-emergence, the test is evaluated for the percentage damage caused to the plant. The biological activities are shown in the following table on a five point scale (5=80-100%; 4=60-79%; 3=40-59%; 2=20-39%; 1=0-19%).

Setaria faberi (SETFA) [2] = assay: Pre-emergence herbicidal glasshouse test; details: evaluated after 13 days, five point scale
Description: as §1

[3] = test system: Echinochloa crus-galli (ECHCG); assay: Pre-emergence herbicidal glasshouse test; details: evaluated after 13 days, five point scale
Description: as §1

[4] = test system: Amaranthus retoflexus (AMARE); assay: Pre-emergence herbicidal glasshouse test; details: evaluated after 13 days, five point scale
Description: as §1

[5] = test system: Ipomoea hederacea (IPOHE); assay: Post-emergence herbicidal glasshouse test; details: evaluated after 13 days, five point scale
Description: as §1

Setaria faberi (SETFA) [6] = assay: Post-emergence herbicidal glasshouse test; details: evaluated after 13 days, five point scale
Description: as §1

[7] = test system: Echinochloa crus-galli (ECHCG); assay: Post-emergence herbicidal glasshouse test; details: evaluated after 13 days, five point scale
Description: as §1

[8] = test system: Amaranthus retoflexus (AMARE); assay: Post-emergence herbicidal glasshouse test; details: evaluated after 13 days, five point scale
Description: as §1

Solanum nigrum (SOLNI) [9] = assay: Pre-emergence herbicidal glasshouse test; details: applied at 250 g/ha, evaluated after 13 days, five point scale
Description: as §1

Lolium perenne (LOLPE) [10] = assay: Pre-emergence herbicidal glasshouse test; details: applied at 250 g/ha, evaluated after 13 days, five point scale
Description: as §1

Solanum nigrum (SOLNI) [11] = assay: Post-emergence herbicidal glasshouse test; details: applied at 250 g/ha, evaluated after 13 days, five point scale
Description: as §1

Lolium perenne (LOLPE) [12] = assay: Post-emergence herbicidal glasshouse test; details: applied at 250 g/ha, evaluated after 13 days, five point scale
Description: as §1

Row | SMILES | percentage damage caused to the plant, PRE Application IPOHE ([1]; applied at 500 g/h) | percentage damage caused to the plant, PRE Application SETFA (Setaria faberi (SETFA) [2]; applied at 500 g/h) | percentage damage caused to the plant, PRE Application ECHCG ([3]; applied at 500 g/h) | percentage damage caused to the plant, PRE Application AMARE ([4]; applied) | percentage damage caused to the plant, POST Application IPOHE ([5]; applied at 500 g/h) | percentage damage caused to the plant, POST Application SETFA (Setaria faberi (SETFA) [6]; applied at 500 g/h) | percentage damage caused to the plant, POST Application ECHCG ([7]; applied at 500 g/h) | percentage damage caused to the plant, POST Application AMARE ([8]; applied at 500 g/h) | percentage damage caused to the plant, PRE Application SOLNI (Solanum nigrum (SOLNI) [9]) | percentage damage caused to the plant, PRE Application IPOHE ([1]; applied at 250 g/ha) | percentage damage caused to the plant, PRE Application SETFA (Setaria faberi (SETFA) [2]; applied at 250 g/ha) | percentage damage caused to the plant, PRE Application ECHCG ([3]; applied at 250 g/ha) | percentage damage caused to the plant, PRE Application AMARE ([4]; applied at 250 g/ha) | percentage damage caused to the plant, PRE Application LOLPE (Lolium perenne (LOLPE) [10]) | percentage damage caused to the plant, POST Application SOLNI (Solanum nigrum (SOLNI) [11]) | percentage damage caused to the plant, POST Application IPOHE ([5]; applied at 250 g/ha) | percentage damage caused to the plant, POST Application SETFA (Setaria faberi (SETFA) [6]; applied at 250 g/ha) | percentage damage caused to the plant, POST Application ECHCG ([7]; applied at 250 g/ha) | percentage damage caused to the plant, POST Application AMARE ([8]; applied at 250 g/ha) | percentage damage caused to the plant, POST Application LOLPE (Lolium perenne (LOLPE) [12])
1 | Cc1c(C(=O)Nc2nnnn2C)cc2cnc(C(F)(F)F)nc2c1-c1ccccc1 [Compound 1.006] | 3 (3=40-59%) | 5 (5=80-100%) | 2 (2=20-39%) | 5 (5=80-100%) | 5 (5=80-100%) | 5 (5=80-100%) | 5 (5=80-100%) | 5 (5=80-100%) |  |  |  |  |  |  |  |  |  |  |  | 
2 | Cn1nnnc1NC(=O)c1cc2cnc(C(F)(F)F)nc2c(-c2ccccc2)c1C(F)(F)F [Compound 1.001] |  |  |  |  |  |  |  |  | 5 (5=80-100%) | 4 (4=60-79%) | 3 (3=40-59%) | 5 (5=80-100%) | 5 (5=80-100%) | 1 (1=0-19%) | 5 (5=80-100%) | 5 (5=80-100%) | 5 (5=80-100%) | 5 (5=80-100%) | 5 (5=80-100%) | 4 (4=60-79%)
3 | CC(C)c1ncc2cc(C(=O)Nc3nnnn3C)c(Cl)c(-c3ccccc3)c2n1 [Compound 1.035] | 4 (4=60-79%) | 5 (5=80-100%) | 5 (5=80-100%) | 5 (5=80-100%) | 5 (5=80-100%) | 5 (5=80-100%) | 5 (5=80-100%) | 5 (5=80-100%) |  |  |  |  |  |  |  |  |  |  |  | 
4 | Cn1nnnc1NC(=O)c1cc2cncnc2c(-c2ccccc2)c1Cl [Compound 1.042] | 5 (5=80-100%) | 5 (5=80-100%) | 5 (5=80-100%) | 5 (5=80-100%) | 5 (5=80-100%) | 5 (5=80-100%) | 5 (5=80-100%) | 5 (5=80-100%) |  |  |  |  |  |  |  |  |  |  |  | 
5 | Cn1nnnc1NC(=O)c1cc2cnc(C(F)(F)F)nc2c(-c2ccccc2)c1Cl [Compound 1.021] | 5 (5=80-100%) | 5 (5=80-100%) | 5 (5=80-100%) | 5 (5=80-100%) | 5 (5=80-100%) | 5 (5=80-100%) | 5 (5=80-100%) | 5 (5=80-100%) |  |  |  |  |  |  |  |  |  |  |  | 
6 | Cn1nnnc1NC(=O)c1cc2cnc(C3CC3)nc2c(-c2ccccc2)c1Cl [Compound 1.028] | 3 (3=40-59%) | 5 (5=80-100%) | 5 (5=80-100%) | 5 (5=80-100%) | 5 (5=80-100%) | 5 (5=80-100%) | 5 (5=80-100%) | 5 (5=80-100%) |  |  |  |  |  |  |  |  |  |  |  | 
